Where two headings read alike, the source gives them in different places. Where no end group is shown, it is not given here.
Columns and labels:
[1] = system: human leucocyte antigen (HLA) class I molecule; assay: CTL assay: lysis of 51-chromium labelled, HLA-matched B lymphoblastoid target cells sensitized with peptide; type: cell-based; settings: for HLA restriction of the peptide (through one or more of the antigens): HLA restrictions not yet fully worked out
Procedure: Peptides in accordance with the invention can also be used for diagnostic purposes. […] Briefly, fresh peripheral blood mononuclear cells (or lymphocytes obtained from biopsy material) are prepared and added at ratios of 50:1, 25:1 and 10:1 to 10^4 51 -chromium labelled B lymphoblastoid cells matched for the relevant HLA molecules. The HLA type of patient is determined in known manner by tissue typing, and B lymphoblastoid cells obtained from a donor of known HLA type (again determined in known manner by tissue typing) and transformed with Epstein Barr using known techniques. A peptide in accordance with the invention, which interacts with the relevant HLA molecule, is also added to the cells in a concentration of 10 to 100 u molar. After 4 hours incubation the supernatant is removed and the released ^51 -chromium measured. The ^51 -chromium released is compared to that released by incubation of labelled cells in detergent, which gives a maximum value, and released by labelled cells incubated in medium alone, which gives a minimum value. If lysis (defined by ^51 -chromium released of at least two times the minimum value) is observed it means that there are cytotoxic T lymphocytes in the patients' mononuclear cells and these are likely to be indicative of infection with HIV.

[2] = system: human leucocyte antigen (HLA) class I molecule; settings: disclosed in prior application EP 0346022; cited from earlier work

Substance	HLA restriction of the peptide (through one or more of the antigens) [1]	other results
DLNTMLNTVGGHQAAC [p24-6, NH2 -aspartic acid-leucine-asparagine-threonine-methionine-leucine-asparagine-threonine- valine-glycine-glycine -histidine-glutamine-alanine-alanine-cysteine-COOH]	HLA-A3 or A29 or B44 or B14	–
NH2 -lysine-arginine-tryptophan-isoleucine-isoleucine-leucine-glycine-leucine- asparagine-lysine-isoleucine-valine-arginine-methionine-tyrosine -cysteine-COOH [p24-14]	–	HLA class I molecule with which the peptide interacts specifically [2]: HLA B27
CVGGPGHKARVL [p24-23, NH2 -cysteine-valine-glycine-glycine-proline-glycine-histidine-lysine-alanine- arginine-valine-leucine-COOH]	LA-A1 or B7 or B8	–
LEEMMTACQGVGGPGY [p24-22, NH2 -leucine-glutamic acid-glutamic acid-methionine-methionine-threonine-alanine-cysteine-glutamine-glycine -valine-glycine-glycine-proline-glycine-tyrosine-COOH]	HLA-A3 or A29 or B44 or B14	–
VQNANPDCKTILKALY [p24-20, NH2 -valine-glutamine-asparagine-alanine-asparagine-proline-aspartic acid-cysteine-lysine-threonine-isoleucine-leucine-lysine-alanine-leucine-tyrosine-COOH]	–	HLA class I molecule with which the peptide interacts specifically [1]: HLA B8; recognition of the peptide by a seropositive donor ([1]; seropositive donor, HLA type as printed): recognised by a seropositive donor of the HLA type HLA-A3, 29B44, 14
VHQAISPRTLNAWVKC [p24-2, NH2 -valine-histidine-glutamine-alanine-isoleucine-serine-proline-arginine-threonine-leucine-asparagine-alanine -tryptophan-valine-lysine-cysteine-COOH]	HLA-A23 or A30 or B8	–

Source: patent US5700469A, “HIV-1 core protein fragments” (Medical Research Council, priority 1990, dated 1997)
